Measured values reported in PMC7619385 (ACS infectious diseases, 2025).
Like-named read-outs stand apart in the source and are kept apart here.

Molecular target: T1, LmxCLK1 (Leishmania mexicana, UniProt E9AMP2)
T1 sequence (E9AMP2 1-422): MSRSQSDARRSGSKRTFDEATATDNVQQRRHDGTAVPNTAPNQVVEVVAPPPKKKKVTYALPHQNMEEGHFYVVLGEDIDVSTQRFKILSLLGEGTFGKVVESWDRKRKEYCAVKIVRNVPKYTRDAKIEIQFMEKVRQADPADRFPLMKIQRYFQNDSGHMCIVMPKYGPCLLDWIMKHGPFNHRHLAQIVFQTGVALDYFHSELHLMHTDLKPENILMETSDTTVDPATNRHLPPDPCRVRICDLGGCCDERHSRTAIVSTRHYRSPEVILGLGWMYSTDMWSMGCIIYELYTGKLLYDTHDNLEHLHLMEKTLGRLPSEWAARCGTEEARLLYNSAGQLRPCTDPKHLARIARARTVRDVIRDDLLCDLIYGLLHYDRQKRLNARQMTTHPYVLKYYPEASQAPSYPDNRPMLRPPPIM
Experiment: biochemical
Type: binding

[1] = DSF, 10 µM compound, 2 µM LmxCLK1, Run 1
[2] = DSF, 10 µM compound, 2 µM LmxCLK1, Run 2
[3] = DSF, 10 µM compound, 2 µM LmxCLK1, mean of two runs
[4] = DSF, 10 µM compound, 2 µM LmxCLK1, Run 1, read-out: ΔTm Run 1
[5] = DSF, 10 µM compound, 2 µM LmxCLK1, Run 2, read-out: ΔTm Run 2
[6] = DSF, 10 µM compound, 2 µM LmxCLK1, mean of two runs, read-out: ΔTm Average

Compound	ΔTm Run 1 [1] [°C]	ΔTm Run 2 [2] [°C]	ΔTm Average [3] [°C]	ΔTm at 10 µM [4] [°C]	ΔTm at 10 µM [5] [°C]	ΔTm at 10 µM [6] [°C]	also measured
Oc1ccc(-c2nc(-c3ccc(F)cc3)c(-c3ccncc3)[nH]2)cc1 [SB202190 (FHPI)]	0.2	0.4	0.3				
Cn1c(=O)c(F)c(Nc2ccc(I)cc2F)c2c(=O)n(C[C@@H](O)CO)cnc21 [TAK-733]				0.2	-0.3	-0.1	
Cc1c(NC(=O)c2ccc(C(C)(C)C)cc2)cccc1-c1cn(C)c(=O)c(Nc2ccc(C(=O)N3CCOCC3)cc2)n1 [CGI1746]				0	-0.4	-0.2	
CCCS(=O)(=O)Nc1ccc(F)c(C(=O)c2c[nH]c3ncc(Cl)cc23)c1F [PLX-4720]				-0.3	-0.1	-0.2	
CO[C@H]1C[C@@H]2CC[C@@H](C)[C@@](O)(O2)C(=O)C(=O)N2CCCC[C@H]2C(=O)O[C@H]([C@H](C)C[C@@H]2CC[C@@H](O)[C@H](OC)C2)CC(=O)[C@H](C)/C=C(\C)[C@@H](O)[C@@H](OC)C(=O)[C@H](C)C[C@H](C)/C=C/C=C/C=C/1C [Rapamycin (Sirolimus)]				0.3	-0.1	0.1	
Cc1c(CN2CCN(C(=O)[C@H](C)O)CC2)sc2c(N3CCOCC3)nc(-c3cnc(N)nc3)nc12 [GDC-0980 (RG7422)]				0.1	-0.1	0	
Cc1c(F)cc(C(=O)NC2CC2)cc1-c1ccc(C(=O)NCC(C)(C)C)cn1 [Losmapimod (GW856553X)]	0.4	0.1	0.2				
COc1ccc(-c2nc(N3CCOCC3)c3sc(CN(C)c4ncc(C(=O)NO)cn4)cc3n2)cn1 [CUDC-907]				0.3	-0.2	0	
NC(=O)Nc1cc(-c2cccc(F)c2)sc1C(=O)N[C@H]1CCCNC1 [AZD7762]				3.5	3.1	3.3	
Cc1[nH]nc2ccc(-c3cncc(OC[C@@H](N)Cc4ccccc4)c3)cc12 [A-674563]							ΔTm Average: 0.7 °C; ΔTm Run 1: 0.8 °C; ΔTm Run 2: 0.6 °C
HER2-Inhibitor-1	0.2	-0.1	0.1				
O=C(O)c1ccc(Nc2ncc3c(n2)-c2ccc(Cl)cc2C(c2c(F)cccc2F)=NC3)cc1 [MLN8054]				0.3	0.1	0.2	
C=CC(=O)Nc1cccc(Nc2nc(Nc3ccc(OCCOC)cc3)ncc2F)c1 [AVL-292]				0	-0.2	-0.1	
COc1cc2c(Oc3ccc(NC(=O)C4(C(=O)Nc5ccc(F)cc5)CC4)cc3F)ccnc2cc1OCCCN1CCOCC1 [Foretinib (GSK1363089)]	0.4	-0.4	0.0				
C#Cc1cccc(Nc2ncnc3cc(OC)c(OCCCCCCC(=O)NO)cc23)c1 [CUDC-101]				0.4	0.2	0.3	
CCC(=O)Nc1cccc(Oc2nc(Nc3ccc(N4CCN(C)CC4)cc3OC)ncc2Cl)c1 [WZ4003]				0.1	-0.1	0	
CN1CCN(c2ccc3nc(-c4c(N)c5c(F)cccc5[nH]c4=O)[nH]c3c2)CC1 [Dovitinib (TKI-258)]	0.5	0.2	0.3				
Nc1ccc(-c2ccc3ncc4ccc(=O)n(-c5cccc(C(F)(F)F)c5)c4c3c2)cn1 [Torin 2]	-0.1	0.0	0.0				
CCCNC(=O)Nc1ccc(Oc2ncnc3cc(OC)c(OC)cc23)cc1Cl [KRN 633]				0.1	-0.1	0	
Cc1cc(O)c2c(c1)C(=O)c1cccc(O)c1C2=O [Chrysophanic Acid]				0	-0.2	-0.1	
Cn1cnc2c(F)c(Nc3ccc(Br)cc3F)c(C(=O)NOCCO)cc21 [MEK162 (ARRY-162)]	-0.2	-0.4	-0.3				
Cc1ccccc1-n1c(Cn2ncc3c(N)ncnc32)nc2cccc(C)c2c1=O [PIK-293]	0.1	-0.2	-0.1				
CO[C@H]1C[C@@H]2CC[C@@H](C)[C@@](O)(O2)C(=O)C(=O)N2CCCC[C@H]2C(=O)O[C@H]([C@H](C)C[C@@H]2CC[C@@H](OCCO)[C@H](OC)C2)CC(=O)[C@H](C)/C=C(\C)[C@@H](O)[C@@H](OC)C(=O)[C@H](C)C[C@H](C)/C=C/C=C/C=C/1C [Everolimus (RAD001)]	0.2	-0.2	0.0				

Compound	ΔTm Run 1 [1] [°C]	ΔTm Run 2 [2] [°C]	ΔTm Average [3] [°C]	ΔTm at 10 µM [4] [°C]	ΔTm at 10 µM [5] [°C]	ΔTm at 10 µM [6] [°C]	also measured
CC(C)(C)NS(=O)(=O)c1cncc(-c2cc(F)c3nc(N)nn3c2)c1 [CZC24832]				0	-0.2	-0.1	
Cc1ccc(C(=O)Nc2ccc(CN3CCN(C)CC3)c(C(F)(F)F)c2)cc1C#Cc1cnc2cccnn12 [Ponatinib (AP24534)]	0.0	-0.1	-0.1				
CC(C)(C)c1cc(C=C(C#N)C#N)cc(Br)c1O [AG-1024]	0.0	-0.2	-0.1				
C[C@@H](Oc1cc(-c2cnn(C3CCNCC3)c2)cnc1N)c1c(Cl)ccc(F)c1Cl [Crizotinib (PF-02341066)]	1.4	1.4	1.4				
COc1cc2nccc(Oc3ccc(NC(=O)Nc4ccc(F)cc4F)c(F)c3)c2cc1OC [Ki8751]	0.0	-0.2	-0.1				
O=c1[nH]c2ccc(Cl)cc2c(N[C@@H]2CN3CCC2CC3)c1-c1nc2ccccc2[nH]1 [CHIR-124]	0.3	0.0	0.2				
CN1CCN(c2ccc(OC(F)(F)F)c(Nc3ncc4c(n3)-c3c(c(C(N)=O)nn3CCO)CC4)c2)CC1 [NMS-P937 (NMS1286937)]	0.0	0.0	0.0				
CN(C)CCSSCCNC(=O)C1CCN(C(=O)CSc2ccc(Cl)cc2)CC1 [6H05]							ΔTm Average: -0.1; ΔTm Run 1: 0.1 °C; ΔTm Run 2: -0.2
Clc1ccc(C2(c3ccc(-c4cn[nH]c4)cc3)CCNCC2)cc1 [AT7867]	1.2	0.7	0.9				
Nc1cccc(-c2cc3c(Oc4cccc(O)c4)ncnc3[nH]2)c1 [TWS119]	0.1	0.2	0.1				
Nc1cc(C(F)(F)F)c(-c2cc(N3CCOCC3)nc(N3CCOCC3)n2)cn1 [BKM120 (NVP-BKM120)]	0.1	0.2	0.1				
N#Cc1ccc2[nH]c(O)c(-c3ccc(CN4CCOCC4)cn3)c2c1 [AZD1080]				0.1	-0.2	-0.1	
CN([C@@H](Cc1ccc(OS(=O)(=O)c2cccc3cnccc23)cc1)C(=O)N1CCN(c2ccccc2)CC1)S(=O)(=O)c1cccc2cnccc12 [KN-62]							ΔTm Average: -0.3; ΔTm Run 1: -0.4; ΔTm Run 2: -0.2
CNC(=O)c1nn(C)c2c1C(C)(C)Cc1cnc(Nc3ccc(N4CCN(C)CC4)cc3)nc1-2 [Milciclib (PHA-848125)]	0.1	-0.2	0.0				
COc1ccc(S(=O)(=O)N(C(C)=O)c2ccccc2/C=C/c2cc[n+]([O-])cc2)cc1 [HMN-214]				0.4	0.1	0.2	
COc1ccc(S(=O)(=O)N(CCO)c2ccccc2CN(C)C/C=C/c2ccc(Cl)cc2)cc1.O=P(O)(O)O [KN-93 Phosphate]	0.1	-0.5	-0.2				
O=C(NCCCNc1nc(Nc2cccc(NC(=O)N3CCCC3)c2)ncc1I)c1cccs1 [BX-795]				-0.1	0.4	0.2	
COc1ccc2cc(-c3nc(-c4ccc([S+](C)[O-])cc4)[nH]c3-c3ccncc3)ccc2c1 (stereo not drawn) [Tie2 kinase inhibitor]							ΔTm Average: 0.1 °C; ΔTm Run 1: 0.1 °C; ΔTm Run 2: 0 °C
C=CC(=O)Nc1ccc2ncnc(Nc3cccc(Br)c3)c2c1 [PD168393]	0.3	-0.7	-0.2				
NC(=O)c1cnc(N[C@@H]2CCCC[C@@H]2N)nc1Nc1cccc(-n2nccn2)c1 [PRT062607 (P505-15)]							ΔTm Average: 1.3 °C; ΔTm Run 1: 1.3 °C; ΔTm Run 2: 1.3 °C
Cc1ccc(Nc2nccc(N(C)c3ccc4c(C)n(C)nc4c3)n2)cc1S(N)(=O)=O.Cl [Pazopanib HCl (GW786034 HCl)]	-0.1	0.0	-0.1				
Cn1cc(-c2ccc3nnc(C(F)(F)c4ccc5ncccc5c4)n3n2)cn1 [JNJ-38877605]							ΔTm Average: -0.3; ΔTm Run 1: -0.1; ΔTm Run 2: -0.4
